This passage reports IC50 results from patent publication US7098340B2, “Benzyl sulfonamide derivatives” (Warner Lambert Company LLC, priority 2003, dated 2006).

SMILES strings stand for the structures.

The target in this assay is T1, androgen receptor (Homo sapiens, UniProt P10275).
T1 sequence (P10275 1-920 Q868H): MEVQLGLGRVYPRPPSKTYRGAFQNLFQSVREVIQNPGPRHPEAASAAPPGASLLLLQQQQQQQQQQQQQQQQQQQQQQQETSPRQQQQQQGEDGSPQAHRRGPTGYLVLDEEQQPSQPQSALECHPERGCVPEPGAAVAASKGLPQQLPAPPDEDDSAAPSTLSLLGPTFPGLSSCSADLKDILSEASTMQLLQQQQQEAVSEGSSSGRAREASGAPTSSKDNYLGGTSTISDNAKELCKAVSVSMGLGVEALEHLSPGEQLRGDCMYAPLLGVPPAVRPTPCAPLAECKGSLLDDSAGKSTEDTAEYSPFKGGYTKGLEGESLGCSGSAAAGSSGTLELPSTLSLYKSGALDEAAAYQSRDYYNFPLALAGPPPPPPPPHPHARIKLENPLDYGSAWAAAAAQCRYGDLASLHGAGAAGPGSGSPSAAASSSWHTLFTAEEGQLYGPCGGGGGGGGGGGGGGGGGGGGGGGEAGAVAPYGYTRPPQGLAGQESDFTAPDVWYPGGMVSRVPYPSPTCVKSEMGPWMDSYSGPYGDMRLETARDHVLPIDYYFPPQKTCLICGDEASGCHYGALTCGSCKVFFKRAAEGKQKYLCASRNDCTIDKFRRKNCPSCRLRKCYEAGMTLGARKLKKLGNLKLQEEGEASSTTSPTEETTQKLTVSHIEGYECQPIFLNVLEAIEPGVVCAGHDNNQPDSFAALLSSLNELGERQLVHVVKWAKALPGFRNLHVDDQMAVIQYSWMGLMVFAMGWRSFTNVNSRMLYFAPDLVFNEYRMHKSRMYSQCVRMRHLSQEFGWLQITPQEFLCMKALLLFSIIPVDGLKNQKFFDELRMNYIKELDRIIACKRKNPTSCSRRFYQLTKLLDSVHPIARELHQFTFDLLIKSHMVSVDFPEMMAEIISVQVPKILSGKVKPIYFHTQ
Kind of assay: AR Antagonist Cell Assay (MMTV-luciferase reporter, DHT-stimulated). The following applies: MDA-MB453-MMTV clone 54-19 cells; antagonism of 100 pM DHT, 17 hr, luciferase readout. It counts as cell-based. The method, boiled down: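 MDA-MB453 cells stably carrying MMTV-ARE-firefly luciferase, in 1% charcoal-treated serum, preincubated 30 min with compound (10 uM or 1 uM) then stimulated with 100 pM DHT for 17 h at 37° C. Luminescence read; result as % inhibition of DHT fold induction.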
For orientation: A reporter such as luciferase makes a cellular process visible.
What is called IC50 is the concentration at which inhibition is half-maximal. A low value points to greater potency in that assay. `O=c1cc(C(F)(F)F)c2cc(Cc3ccc(S(=O)(=O)NC4CCN(Cc5ccccc5)CC4)cc3)ccc2[nH]1` [Example 52, N-(1-Benzylpipendin-4-yl)-4-(2-oxo-4-trifluoromethyl-1,2-dihydroquinolin-6-ylmethyl)-benzenesulfonamide] returned an IC50 of 9.9 µM. Turning to `O=c1cc(C(F)(F)F)c2cc(Cc3ccc(S(=O)(=O)Nc4ccc(F)cc4)cc3)ccc2o1` [Example 117, N-(4-Fluorophenyl)-4-(2-oxo-4-trifluoromethyl-2H-chromen-6-ylmethyl)benzenesulfonamide], the IC50 worked out at 3.46 µM. On to `Cc1ccc(F)cc1CNS(=O)(=O)c1ccc(Cc2ccc3oc(=O)cc(C(F)(F)F)c3c2)cc1` [Example 185, N-(5-Fluoro-2-methylbenzyl)-4-(2-oxo-4-trifluoromethyl-2H-chromen-6-ylmethyl)-benzenesulfonamide], for which the IC50 was 4.06 µM. `CC(CNS(=O)(=O)c1ccc(Cc2ccc3[nH]c(=O)cc(C(F)(F)F)c3c2)cc1)c1ccccc1` (stereo not shown) [Example 65, 4-(2-Oxo-4-trifluoromethyl-1,2-dihydroquinolin-6-ylmethyl)-N-(2-phenylpropyl)-benzenesulfonamide] yielded an IC50 of 5.38 µM. The result for `CC(C)(C)SCCNS(=O)(=O)c1ccc(Cc2ccc3[nH]c(=O)cc(C(F)(F)F)c3c2)cc1` [Example 82, N-(2-tert-Butylsulfanylethyl)-4-(2-oxo-4-trifluoromethyl-1,2-dihydroquinolin-6-ylmethyl)-benzenesulfonamide] reads over 10 µM; that for `O=c1cc(C(F)(F)F)c2cc(Cc3ccc(S(=O)(=O)NCc4ccc(F)cc4)cc3)ccc2o1` [Example 173, N-(4-Fluorobenzyl)-4-(2-oxo-4-trifluoromethyl-2H-chromen-6-ylmethyl)benzenesulfonamide], 7.68 µM.

Consider `O=c1cc(C(F)(F)F)c2cc(Cc3ccc(S(=O)(=O)NC4CCc5ccccc54)cc3)ccc2o1` (stereo not shown) [Example 178, N-Indan-1-yl-4-(2-oxo-4-trifluoromethyl-2H-chromen-6-ylmethyl)benzenesulfonamide], for which it took 7.74 µM to reach half-maximal inhibition (IC50). Take `COc1ccc(OC)c(NS(=O)(=O)c2ccc(Cc3ccc4oc(=O)cc(C(F)(F)F)c4c3)cc2)c1` [Example 140, N-(2,5-Dimethoxyphenyl)-4-(2-oxo-4-trifluoromethyl-2H-chromen-6-ylmethyl)-benzenesulfonamide]: the midpoint of inhibition, the IC50, lay at 7.3 µM. In turn, `O=c1cc(C(F)(F)F)c2cc(Cc3ccc(S(=O)(=O)NCCN4CCOCC4)cc3)ccc2[nH]1` [Example 62, N-(2-Morpholin-4-ylethyl)-4-(2-oxo-4-trifluoromethyl-1,2-dihydroquinolin-6-ylmethyl)-benzenesulfonamide] displayed a concentration for half-maximal inhibition (IC50) of 6.66 µM. The value for `O=c1cc(C(F)(F)F)c2cc(Cc3ccc(S(=O)(=O)NCc4c(F)ccc(F)c4Cl)cc3)ccc2o1` [Example 202, N-(2-Chloro-3,6-difluorobenzyl)-4-(2-oxo-4-trifluoromethyl-2H-chromen-6-ylmethyl)benzenesulfonamide] was 4.42 µM. Compound `CC(C)(NS(=O)(=O)c1ccc(Cc2ccc3oc(=O)cc(C(F)(F)F)c3c2)cc1)c1ccccc1` [Example 179, N-(1-Methyl-1-phenylethyl)-4-(2-oxo-4-trifluoromethyl-2H-chromen-6-ylmethyl)benzenesulfonamide] gave an IC50 of over 10 µM. On to `CCCCN(C)S(=O)(=O)c1ccc(Cc2ccc3[nH]c(=O)cc(C(F)(F)F)c3c2)cc1` [Example 9B, N-Butyl-N-methyl-4-(2-oxo-4-trifluoromethyl-1,2-dihydroquinolin-6-ylmethyl)benzenesulfonamide], for which the IC50 was over 10 µM. In turn, `O=c1cc(C(F)(F)F)c2cc(Cc3ccc(S(=O)(=O)NCCc4ccccc4)cc3)ccc2[nH]1` [Example 57, 4-(2-Oxo-4-trifluoromethyl-1,2-dihydroquinolin-6-ylmethyl)-N-phenethylbenzenesulfonamide] registered an IC50 of over 10 µM.

The compound `CCOc1ccccc1CNS(=O)(=O)c1ccc(Cc2ccc3[nH]c(=O)cc(C(F)(F)F)c3c2)cc1` [Example 71, N-(2-Ethoxybenzyl)-4-(2-oxo-4-trifluoromethyl-1,2-dihydroquinolino-6-ylmethyl)-benzenesulfonamide] had an IC50 of over 10 µM. In turn, `CCN(Cc1ccncc1)S(=O)(=O)c1ccc(Cc2ccc3[nH]c(=O)cc(C(F)(F)F)c3c2)cc1` [Example 5, N-Ethyl-4-(2-oxo-4-trifluoromethyl-1,2-dihydroquinolin-6-ylmethyl)-N-pyridin-4-ylmethylbenzenesulfonamide] yielded an IC50 of over 10 µM.

`O=c1cc(C(F)(F)F)c2cc(Cc3ccc(S(=O)(=O)Nc4cccc5cccnc45)cc3)ccc2o1` [Example 137, 4-(2-Oxo-4-trifluoromethyl-2H-chromen-6-ylmethyl)-N-quinolin-8-ylbenzenesulfonamide] returned an IC50 of 7.08 µM. In turn, `O=C1CCCN1CCCNS(=O)(=O)c1ccc(Cc2ccc3[nH]c(=O)cc(C(F)(F)F)c3c2)cc1` [Example 68, N-[3-(2-Oxopyrrolidin-1-yl)propyl]-4-(2-oxo-4-trifluoromethyl-1,2-dihydroquinolin-6-ylmethyl)-benzenesulfonamide] had an IC50 of 7.62 µM. `CCCCN(CC)S(=O)(=O)c1ccc(Cc2ccc3[nH]c(=O)cc(C(F)(F)F)c3c2)cc1` [Example 6] returned an IC50 of over 10 µM. With `Cc1cccc(CNS(=O)(=O)c2ccc(Cc3ccc4oc(=O)cc(C(F)(F)F)c4c3)cc2)c1` [Example 169, N-(3-Methylbenzyl)-4-(2-oxo-4-trifluoromethyl-2H-chromen-6-ylmethyl)benzenesulfonamide], the IC50 turned out to be 5.81 µM. As for `O=c1cc(C(F)(F)F)c2cc(Cc3ccc(S(=O)(=O)Nc4cccc(C(F)(F)F)c4)cc3)ccc2[nH]1` [Example 39, 4-(2-Oxo-4-trifluoromethyl-1,2-dihydroquinolin-6-ylmethyl)-N-(3-trifluoromethylphenyl)-benzenesulfonamide], the IC50 is over 10 µM. The compound `O=c1cc(C(F)(F)F)c2cc(Cc3ccc(S(=O)(=O)Nc4cc5ccccc5cn4)cc3)ccc2[nH]1` [Example 27, N-Isoquinolin-3-yl-4-(2-oxo-4-trifluoromethyl-1,2-dihydroquinolin-6-ylmethyl)-benzenesulfonamide] returned an IC50 of over 10 µM. The value for `CC(C)N(c1ccccc1)c1ccc(NS(=O)(=O)c2ccc(Cc3ccc4[nH]c(=O)cc(C(F)(F)F)c4c3)cc2)cc1` [Example 48, N-[4-(Isopropylphenylamino)-phenyl]-4-(2-oxo-4-trifluoromethyl-1,2-dihydroquinolin-6-ylmethyl)-benzenesulfonamide] was 4.97 µM. The value for `O=c1cc(C(F)(F)F)c2cc(Cc3ccc(S(=O)(=O)Nc4ccccc4)cc3)ccc2o1` [Example 113, 4-(2-Oxo-4-trifluoromethyl-2H-chromen-6-ylmethyl)-N-phenylbenzenesulfonamide] was 0.72 µM; that for `CN(CCc1ccccn1)S(=O)(=O)c1ccc(Cc2ccc3oc(=O)cc(C(F)(F)F)c3c2)cc1` [Example 111, N-Methyl-4-(2-oxo-4-trifluoromethyl-2H-chromen-6-ylmethyl)-N-(2-pyridin-2-ylethyl)benzenesulfonamide] was 4.78 µM; that for `CC(C)Oc1cccc(NS(=O)(=O)c2ccc(Cc3ccc4oc(=O)cc(C(F)(F)F)c4c3)cc2)c1` [Example 142, N-(3-Isopropoxyphenyl)-4-(2-oxo-4-trifluoromethyl-2H-chromen-6-ylmethyl)-benzenesulfonamide] was about 10 µM.
